Consider seven compounds from article PMC5830749, “Bifunctional fluorescent probes for detection of amyloid aggregates and reactive oxygen species” (Royal Society Open Science, 2018).

Where a name gives a salt, the structure may show the parent alone. Read-outs that look alike come from different tables or passages of the source.

Data set [1] is described as follows: LCMS analysis of the reaction of the dyes with H2O2 in PBS. Format: physicochemical. The following applies: for dye molecules converted into the phenol: 1 hour incubation with 100 µM H2O2, PBS. As to the method:
Next, the change in bulk fluorescence emission was assessed upon addition of H2O2 at a concentration realistic for cellular oxidative stress (100 µM). […] Furthermore, the kinetics could be followed, with all fluorescence traces increasing at varying rates in a linear regime over a 5 h period (figure 2c). As the oxidation reaction is predominantly irreversible, these sensors record the total ROS exposure to a system, rather than the equilibrium value. […] These measurements confirmed that the change in fluorescence intensity arose from the conversion of the boronic ester into the hydroxyl functionality. By contrast, no significant change in the chemical composition of the dye solutions occurred over the same time frame without addition of H2O2 (electronic supplementary material, figure S4).
LCMS analysis of the reaction of the dyes with H2O2 was performed using a Waters Acquity H-class UPLC coupled with a single quadrupole Waters SQD2. ACQUITY UPLC CSH C18 Column, 130 Å, 1.7 µm, 2.1 mm × 50 mm was used as the UPLC column. The conditions of the UPLC method are as follows:
Solvent A: Water +0.1% Formic acid; Solvent B: Acetonitrile +0.1% Formic acid; Gradient of 0-4 minutes 5% - 100%B + 1 minute 100% B with re-equilibration time of 2 minutes. Flow rate: 0.6 ml/min; Column temperature of 40 °C; Injection volume of […]. The signal was monitored at 254 nm.
Samples were prepared by diluting the stock solutions of the BE and mBE compounds (prepared as previously described) into PBS (pH 7.4) to a concentration of 30 µM. The diluted dye solutions were analysed via LCMS directly after dilution (t = 0 hour) as well as 1 hour after dilution (t = 1 hour) (Supplementary Table 1). To proof the oxidative cleavage of the boronic esters to a phenol triggered by H2O2, the diluted dye solutions were exposed to 100 µM H2O2 and analysed via LCMS after 1 hour of incubation (Supplementary Table 1).

A short description of data set [2]: Bulk fluorescence response of dyes to H2O2. To be noted: for increase in bulk fluorescence upon addition of H2O2: 100 µM H2O2, dye 5 µM, PBS pH 7.4, relative to free dye; for gradient of fluorescence intensity versus time curve: dyes incubated with H2O2, recorded over 5 h at 20 min intervals.
Experimental: Next, the change in bulk fluorescence emission was assessed upon addition of H2O2 at a concentration realistic for cellular oxidative stress (100 µM) [31]. […] As the oxidation reaction is predominantly irreversible, these sensors record the total ROS exposure to a system, rather than the equilibrium value.
Data set [3] in a line: Bulk photophysical properties of free dyes in PBS. The following applies: free dye; for Stokes shift (λem − λabs) / brightness (ε × ΦFl) / maximum absorption wavelength (λabs) / maximum emission wavelength (λem) / molar extinction coefficient ε: PBS pH 7.4; for fluorescence quantum yield ΦFl: PBS pH 7.4, relative to a standard.
Experimental: Several photophysical quantities were determined from ensemble absorption and emission data, using techniques previously described [38]. These included absorption maxima (λAbs), emission maxima (λEm) Stokes shift, molar extinction coefficient (ε) and fluorescence quantum yield (ΦFl).
The target in data set [4] is T1, αSyn aggregates (Homo sapiens, UniProt P37840). Nature of the data set: Limit of detection of oxidized probes by SAVE imaging. To be noted: first dye concentration deviating from mean background by 3 s.d.
Experimental: To quantify this process, we determined the number of detectable aggregates, before and after addition of H2O2 and assumed constant surface coverage. […] The limit of detection (LOD) of oxidized BE (BE-Ox) and mBE (mBE-Ox) probes to αSyn aggregates was determined using SAVE imaging (electronic supplementary material, figure S8).
Glass cover-slides for SAVE fluorescence imaging were cleaned for 1 h using an argon plasma (PDC-002, Harrick Plasma) and the slide surface incubated with poly-L-lysine (PLK) for 30 min as previously described [13]. […] The working solution (50 µl) was added to the clean, PLK coated cover-slide and incubated for 2 min. The slide was then washed twice with PBS and imaged. H2O2 (100 µM) was then added directly to the cover-slide and the sample imaged again.
Data set [5] concerns the target T1, αSyn aggregates. Description: SAVE (TIRF) single-aggregate fluorescence imaging, density of detected aggregates. Further details: made in house; host or cells: Escherichia coli. As to the method: Fluorescence imaging experiments were carried out with a bespoke inverted microscope (Nikon, Eclipse, TE2000-U) set-up optimized for TIRF measurements. […] Images were recorded at 100 ms exposure for 200 frames using automation through Micro-manager software.
Images were analysed with a bespoke ImageJ [41] macro. […] Pixels of intensity above background were determined with a fixed threshold and αSyn aggregate species in each field of view identified and counted. […] Five fields of view in the presence of H2O2 and five in the absence of H2O2 were analysed for each dye. Error bars represent the standard deviations of the species density between the five fields of view.

The target of the next data set is H2O2 and αSyn aggregates (Homo sapiens, UniProt P37840). The following applies: 100 µM H2O2 (60 min) and approx. 10 µM αSyn aggregates, dye 5 µM.
The target of data set [6] is T1, αSyn aggregates. Nature of the data set: Surface plasmon resonance equilibrium affinity to immobilized αSyn aggregates. To be noted: SPR, 25°C, before incubation with H2O2. Further details: made in house; host or cells: Escherichia coli. Format: binding. For orientation: In SPR one partner is held on a chip, and binding of the other changes the refractive index at the surface.

Data set [7] concerns the target T1, αSyn aggregates. Description: Bulk fluorescence response of dyes to preformed αSyn aggregates. The arrangement: made in house; host or cells: Escherichia coli. To be noted: approx. 10 µM preformed αSyn aggregates, dye 5 µM, PBS pH 7.4.
The conditions of data set [8]: cited from earlier work.
Where [9] appears, read: 30 µM in PBS pH 7.4, 60 minutes with 100 μM H2O2, UV 254 nm.
The mark [10] stands for this setting: 30 µM in PBS pH 7.4, time point 0 minutes, no H2O2, UV 254 nm.
Where [11] appears, read: 30 µM in PBS pH 7.4, time point 60 minutes, no H2O2, UV 254 nm.
Setting [12] is: after addition of 100 µM H2O2 (post-oxidation).
[13] abbreviates: before addition of H2O2 (pre-oxidized).

The Kd is the free concentration of one partner at which half of the binding sites on the other are occupied at equilibrium, for simple one-to-one binding. A higher Kd goes with lower affinity.

For `COc1ccc2nc(-c3ccc(B4OC(C)(C)C(C)(C)O4)cc3)sc2c1` [BE01, 6-methoxy-2-(4-(4,4,5,5-tetramethyl-1,3,2-dioxaborolan-2-yl)phenyl)benzo[d]thiazole], the “Oxidized (phenol derivative) Rel. Area” value in [1] (setting [9]) was determined as 100%. Moreover, in data set [1] (setting [10]), the “Boronate ester Rel. Area” value is recorded as 35% and the “Hydrolyzed (boronic acid derivative) Rel. Area” value (“Hydrolyzed” below) is 65%. In addition, in [1] (setting [11]), the “Boronate ester Rel. Area” value amounted to 53% and the “Hydrolyzed” value was 47%. For the same compound, the “dye molecules converted into the phenol” value in data set [1] is reported as 100%. In [2] (5 µM dye, 5 h incubation with 0-100 µM H2O2), the H2O2 concentration detected result is listed as “greater than 1 µM”. In data set [2], the “increase in bulk fluorescence upon addition of H2O2” value (from here on “increase … of H2O2”) was 2.0 fold and the “gradient of fluorescence intensity versus time curve” value was 0.112 ± 0.002 min⁻¹. Moreover, in data set [3], the “Stokes shift (λem − λabs)” value is given as 86 nm, the “brightness (ε × ΦFl)” value amounted to 384 M⁻¹ cm⁻¹, the “maximum absorption wavelength (λabs)” value came to 330 nm and the “maximum emission wavelength (λem)” value stood at 416 nm. In data set [3], the “molar extinction coefficient ε” value was found to be 6400 M⁻¹ cm⁻¹ and the “fluorescence quantum yield ΦFl” value was 0.06.
In the case of `COc1ccc2nc(-c3ccc(B4OCC(C)(C)CO4)cc3)sc2c1` [BE02, 2-(4-(5,5-dimethyl-1,3,2-dioxaborinan-2-yl)phenyl)-6-methoxybenzo[d]thiazole], in data set [1] (setting [9]), the “Hydrolyzed” value worked out at 10% and the “Oxidized (phenol derivative) Rel. Area” value came to 90%. The “Hydrolyzed” value in data set [1] (setting [10]) worked out at 100%. Besides, the “Hydrolyzed” value in [1] (setting [11]) is given as 100%. The “dye molecules converted into the phenol” value in data set [1] amounted to 90%. For the same compound, the “gradient of fluorescence intensity versus time curve” value in data set [2] turned out to be 0.017 min⁻¹. In addition, in data set [3], the “Stokes shift (λem − λabs)” value is reported as 82 nm, the “brightness (ε × ΦFl)” value was found to be 168 M⁻¹ cm⁻¹, the “maximum absorption wavelength (λabs)” value is 330 nm and the “maximum emission wavelength (λem)” value is listed as 412 nm. For the same compound, in [3], the “molar extinction coefficient ε” value is 4200 M⁻¹ cm⁻¹ and the “fluorescence quantum yield ΦFl” value amounted to 0.04.
As for `Cc1ccc2c(c1)sc(-c1ccc(N(C)C)cc1)[n+]2C` [ThT, thioflavin t, reference compound], the “limit of detection (LOD) to αSyn aggregates” value on αSyn aggregates [4] came to 2.40 ± 0.64 µM. On αSyn aggregates [5] (setting [12]), the “density of single αSyn aggregate species detected” value (shortened to “density”) was determined as 0.026 ± 002 aggregates/µm^2. Also, the “density” value at αSyn aggregates [5] (setting [13]) is 0.025 ± 0.004 aggregates/µm^2. Also, the “'compounded' increase in fluorescence with H2O2 and αSyn aggregates together” value (“'compounded' increase in fluorescence” below) at H2O2 and αSyn aggregates is “no change in fluorescence”. The “increase … of H2O2” value in data set [2] is on record as “no change”. In addition, in [3], the “brightness (ε × ΦFl)” value was found to be 15 M⁻¹ cm⁻¹, the “maximum absorption wavelength (λabs)” value was found to be 412 nm, the “maximum emission wavelength (λem)” value is reported as 486 nm and the “molar extinction coefficient ε” value is 37 500 M^−1 cm^−1. In addition, in data set [3], the “fluorescence quantum yield ΦFl” value was found to be 0.00.
Consider `COc1ccc2c(c1)sc(-c1ccc(B3OC(C)(C)C(C)(C)O3)cc1)[n+]2C.F[B-](F)(F)F` [mBE01, 6-Methoxy-3-methyl-2-(4-(4,4,5,5-tetramethyl-1,3,2-dioxaborolan-2-yl)phenyl)benzo[d]thiazol-3-ium tetrafluoroborate], for which, in [1] (setting [9]), the “Hydrolyzed” value amounted to 27%; the “Oxidized (phenol derivative) Rel. Area” value is on record as 64%; the “Oxidized, de-methylated Rel. Area” value was 9.47%. Besides, the “Hydrolyzed” value in [1] (setting [10]) is 100%. Also, the “Hydrolyzed” value in data set [1] (setting [11]) stood at 100%. The “dye molecules converted into the phenol” value in [1] worked out at 73%. In addition, on αSyn aggregates [6], the Kd amounted to 35.2 ± 5.7 µM. Further, the “density” value at αSyn aggregates [5] (setting [12]) stood at 0.0051 ± 0.0004 aggregates/µm^2. Besides, at αSyn aggregates [5] (setting [13]), the “density” value is listed as 0.0040 ± 0.0004 aggregates/µm^2. Further, at H2O2 and αSyn aggregates, the “'compounded' increase in fluorescence” value is reported as “no additional change in fluorescence”. Besides, in data set [2], the “increase … of H2O2” value is listed as 16.0 fold and the “gradient of fluorescence intensity versus time curve” value stood at 0.011 min⁻¹. Also, at αSyn aggregates [7], the “increase in fluorescence intensity upon addition of αSyn aggregates” value is on record as 7.1 fold. Also, in data set [3], the “Stokes shift (λem − λabs)” value was 87 nm, the “brightness (ε × ΦFl)” value was determined as 168 M⁻¹ cm⁻¹, the “maximum absorption wavelength (λabs)” value is given as 330 nm and the “maximum emission wavelength (λem)” value was 417 nm. For the same compound, in [3], the “molar extinction coefficient ε” value is on record as 16 800 M^−1 cm^−1 and the “fluorescence quantum yield ΦFl” value came to 0.01.
With `COc1ccc2c(c1)sc(-c1ccc(B3OCC(C)(C)CO3)cc1)[n+]2C.F[B-](F)(F)F` [mBE02, 2-(4-(5,5-Dimethyl-1,3,2-dioxaborinan-2-yl)phenyl)-6-methoxy-3-methylbenzo[d]thiazol-3-ium tetrafluoroborate], in data set [1] (setting [9]), the “Hydrolyzed” value came out at 12%; the “Oxidized (phenol derivative) Rel. Area” value is 70%; the “Oxidized, de-methylated Rel. Area” value was 18.63%. Moreover, in data set [1] (setting [10]), the “Hydrolyzed” value came to 100%. Besides, the “Hydrolyzed” value in data set [1] (setting [11]) amounted to 100%. The “dye molecules converted into the phenol” value in data set [1] worked out at 88%. Also, at αSyn aggregates [6], the dissociation constant Kd turned out to be 33.5 ± 3.9 µM. Besides, the “density” value on αSyn aggregates [5] (setting [12]) is 0.0060 ± 0.0005 aggregates/µm^2. For the same compound, the “density” value at αSyn aggregates [5] (setting [13]) is 0.006 ± 0.001 aggregates/µm^2. Besides, the “'compounded' increase in fluorescence” value at H2O2 and αSyn aggregates is given as “no additional change in fluorescence”. Further, in data set [2], the “increase … of H2O2” value was 3.6 fold and the “gradient of fluorescence intensity versus time curve” value is 0.015 min⁻¹. The “increase in fluorescence intensity upon addition of αSyn aggregates” value on αSyn aggregates [7] stood at 3.8 fold. In data set [3], the “Stokes shift (λem − λabs)” value came out at 87 nm, the “brightness (ε × ΦFl)” value came to 148 M⁻¹ cm⁻¹, the “maximum absorption wavelength (λabs)” value worked out at 330 nm and the “maximum emission wavelength (λem)” value is listed as 417 nm. Also, in data set [3], the “molar extinction coefficient ε” value is recorded as 14 800 M^−1 cm^−1 and the “fluorescence quantum yield ΦFl” value is recorded as 0.01.
For `C=C[C@H]1C[N@@]2CC[C@H]1C[C@H]2[C@H](O)c1ccnc2ccc(OC)cc12` [quinine sulfate], the “ΦFl of reference standard” value in [8] (in 0.1 M H2SO4) is 0.5.
On to `O=C(O)c1ccccc1C1=c2cc3c4c(c2Oc2c1cc1c5c2CCCN5CCC1)CCC[N+]=4CCC3.[Cl-]` [rhodamine 101], for which the “ΦFl of reference standard” value in [8] (in ethanol) is on record as 1.
